Source: the supplement of paper PMC10307832

Key:
Assay in all cases: relative viability (nuclei count vs DMSO), 5 days (fraction); higher = more cells survive
[1] = compound: CC1=CC(=CC=C1)NC2=NC(=CS2)C3=CC=NC=C3 + Nc1nc2[nH]cc(CCc3ccc(C(=O)N[C@@H](CCC(=O)O)C(=O)O)cc3)c2c(=O)[nH]1 [Pemetrexed] (partner 0.2 µM)
In short: (§1)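 Nuclei were stained with Hoechst during a one-step fixation (final 0.05% Triton X-100, 1% formaldehyde, 1 ug/ml Hoechst) carried out 5 days after dosing, then counted on 4× images. The cells, lung cancer lines in 1536-well plates, had been dosed by pin tool the day after seeding with one drug alone or a fixed anchor-drug dose plus five library-drug doses (not always all listed) in √10 steps. Relative viability is the nuclei count in treated wells divided by that in vehicle wells, and each value is the median of duplicate plates.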

Masitinib + Trametinib = compound: Cc1ccc(NC(=O)c2ccc(CN3CCN(C)CC3)cc2)cc1Nc1nc(-c2cccnc2)cs1 [Masitinib] + CC(=O)Nc1cccc(-n2c(=O)n(C3CC3)c(=O)c3c(Nc4ccc(I)cc4F)n(C)c(=O)c(C)c32)c1 [Trametinib] (partner 0.02 µM)
In short: as §1

Masitinib + Pemetrexed = compound: Cc1ccc(NC(=O)c2ccc(CN3CCN(C)CC3)cc2)cc1Nc1nc(-c2cccnc2)cs1 [Masitinib] + Nc1nc2[nH]cc(CCc3ccc(C(=O)N[C@@H](CCC(=O)O)C(=O)O)cc3)c2c(=O)[nH]1 [Pemetrexed] (partner 0.2 µM)
In short: as §1

Masitinib + Foretinib = compound: Cc1ccc(NC(=O)c2ccc(CN3CCN(C)CC3)cc2)cc1Nc1nc(-c2cccnc2)cs1 [Masitinib] + COc1cc2c(Oc3ccc(NC(=O)C4(C(=O)Nc5ccc(F)cc5)CC4)cc3F)ccnc2cc1OCCCN1CCOCC1 [Foretinib] (partner 0.25 µM)
In short: as §1

| Cell Line | relative viability ([1]; first compound 0.08 µM) | relative viability ([1]; first compound 0.253 µM) | relative viability ([1]; first compound 0.8 µM) | relative viability ([1]; first compound 2.53 µM) | relative viability ([1]; first compound 8 µM) | relative viability (Masitinib + Trametinib; first compound 0.01 µM) | relative viability (Masitinib + Trametinib; first compound 0.03162 µM) | relative viability (Masitinib + Trametinib; first compound 0.1 µM) | relative viability (Masitinib + Trametinib; first compound 0.3162 µM) | relative viability (Masitinib + Trametinib; first compound 1 µM) | relative viability (Masitinib + Pemetrexed; first compound 0.01 µM) | relative viability (Masitinib + Pemetrexed; first compound 0.03162 µM) | relative viability (Masitinib + Pemetrexed; first compound 0.1 µM) | relative viability (Masitinib + Pemetrexed; first compound 0.3162 µM) | relative viability (Masitinib + Pemetrexed; first compound 1 µM) | relative viability (Masitinib + Foretinib; first compound 0.01 µM) | relative viability (Masitinib + Foretinib; first compound 0.03162 µM) | relative viability (Masitinib + Foretinib; first compound 0.1 µM) | relative viability (Masitinib + Foretinib; first compound 0.3162 µM) | relative viability (Masitinib + Foretinib; first compound 1 µM) |
| --- | --- | --- | --- | --- | --- | --- | --- | --- | --- | --- | --- | --- | --- | --- | --- | --- | --- | --- | --- | --- |
| NCI-H522 | 0.966 | 1.12 | 1.17 | 0.995 | 1.19 | 0.742 | 0.784 | 0.787 | 0.73 | 0.721 | 1.13 | 0.935 | 0.95 | 0.841 | 0.997 | – | – | – | – | – |
| HCC-15 | 0.222 | 0.214 | 0.203 | 0.194 | 0.214 | 0.364 | 0.373 | 0.389 | 0.234 | 0.354 | 0.226 | 0.24 | 0.212 | 0.203 | 0.226 | 0.989 | 0.949 | 1.02 | 1.05 | 0.983 |
| A-427 | 0.915 | 1.02 | 0.987 | 0.899 | 0.932 | 0.623 | 0.74 | 0.842 | 0.75 | 0.676 | 0.758 | 0.986 | 0.857 | 1.03 | 0.771 | – | 1.13 | – | 1.01 | 1 |
| NCI-H23 | 0.629 | 0.447 | 0.66 | 0.582 | 0.778 | 0.305 | 0.368 | 0.469 | 0.375 | 0.354 | 0.795 | 0.607 | 0.699 | 0.641 | 0.626 | 0.945 | 1.05 | 1.04 | 0.564 | 1.01 |
| NCI-H1755 | 0.35 | 0.445 | 0.393 | 0.401 | 0.397 | 0.633 | 0.83 | 0.788 | 0.766 | 0.699 | 0.357 | 0.411 | 0.427 | 0.446 | 0.463 | – | 0.927 | 0.975 | 0.897 | 0.828 |
| LU99A | 0.141 | 0.199 | 0.171 | 0.178 | 0.182 | 0.619 | 0.597 | 0.624 | 0.559 | 0.503 | 0.158 | 0.21 | 0.16 | 0.181 | 0.219 | 0.901 | 0.823 | 0.877 | 1.01 | 0.822 |
| PC-3 [JPC-3] | 0.909 | – | 1.15 | 0.961 | 1.05 | 0.723 | 0.651 | 0.733 | 0.576 | 0.616 | 1.04 | 0.733 | 1.06 | 1.37 | 0.87 | 1.03 | 0.98 | 1.02 | 1.02 | 1 |
| NCI-H1975 | 0.277 | 0.25 | 0.257 | 0.24 | 0.239 | 0.302 | 0.364 | 0.374 | 0.237 | 0.323 | 0.305 | 0.3 | 0.287 | 0.291 | 0.303 | 1.02 | 0.96 | 0.924 | – | 0.998 |
| NCI-H1703 | – | – | – | – | – | – | – | – | – | – | – | – | – | – | – | 0.315 | 0.308 | 0.287 | 0.342 | 0.328 |
| HCC-366 | 0.154 | 0.123 | 0.121 | 0.113 | 0.0949 | – | 0.275 | 0.407 | 0.333 | 0.34 | – | 0.174 | 0.148 | 0.137 | 0.146 | – | 0.933 | – | 0.961 | 0.998 |
| NCI-H1793 | 0.603 | 0.779 | 0.808 | 0.604 | 0.957 | 0.54 | 0.388 | 0.407 | 0.555 | 0.346 | 0.992 | 0.737 | 1 | 0.835 | 0.742 | 0.63 | 0.684 | 0.973 | 0.519 | 0.61 |
| NCI-H727 | – | – | – | – | – | 0.333 | 0.375 | 0.417 | 0.366 | 0.334 | – | – | – | – | – | 0.673 | 1.02 | 1 | 0.891 | 0.85 |
| RERF-LC-KJ | 0.518 | 0.488 | 0.506 | 0.361 | 0.474 | 0.769 | 0.836 | 0.834 | 0.809 | 0.763 | 0.475 | 0.522 | 0.44 | 0.535 | 0.459 | 0.734 | 0.883 | 0.987 | 0.746 | 0.797 |
| NCI-H1623 | – | – | – | – | – | – | – | – | – | – | – | – | – | – | – | 0.771 | 0.739 | 0.771 | 0.707 | 0.735 |
| Calu-6 | – | – | – | – | – | – | – | – | – | – | – | – | – | – | – | 0.814 | 0.822 | 0.931 | 0.825 | 0.862 |
| LC-2-ad | 0.269 | 0.281 | 0.308 | 0.258 | 0.276 | 0.92 | 0.917 | 0.911 | 0.941 | 0.93 | 0.265 | 0.29 | 0.268 | 0.248 | 0.247 | 0.87 | 0.859 | 1.09 | 0.847 | 0.825 |
| CAL-12T | 1.19 | 0.94 | 1.15 | 1.05 | 1.07 | 0.374 | 0.347 | 0.325 | 0.307 | 0.419 | 1.11 | 1.15 | 1.29 | 1.4 | 1.28 | 1.05 | 1.16 | 1.15 | 1.07 | 0.933 |
